Experimental findings from publication PMC11432763, “Machine Learning-Driven Discovery and Evaluation of Antimicrobial Peptides from Crassostrea gigas Mucus Proteome” (Marine Drugs, 2024) are described below.

Where a SMILES comes first, the peptide text is derived from it.

The subject of this data set is HEK293T cells. Put plainly: Cytotoxicity assay (CCK-8). The data set is classed as cell-based. To be noted: 24 h; for Cytotoxicity within the concentration range detected (in words): peptide 1-50 μM, CCK-8, OD450, n = 5; for Cytotoxicity at 50 μM (in words): CCK-8, n = 5, compared with 0 μM. The method, then:
HEK293T cells were cultured in DMEM (10% FBS, 1% penicillin–streptomycin solution) in a 37 °C, 5% CO2 cell culture incubator until reaching the logarithmic growth phasein. As previously described, cells were seeded into a 96-well plate at 100 μL per well and pre-incubated for 48 h. After removing the medium, 10 μL of antimicrobial peptide solutions (1, 2, 5, 10, 20, and 50 μM) were added to each well with five replicate wells per concentration. The HEK293T cells cultured with DMEM (0 μM peptide) constituted the untreated group and plates with no cells were as blank group. Plates were then cultured for 24 h. Subsequently, 10 μL of CCK-8 solution was added to each well and incubated for 3 h under the same conditions using the Cell Counting Kit-8 (CCK-8, K1018, APE×BIO, Technology LLC, Houston, TX, USA). Absorbance at 450 nm was measured using a microplate reader. Cell viability was calculated using the following formula: Cell viability (%) = [Treated group OD (450) − Blank group OD (450)]/[Untreated group OD (450) − Blank group OD (450)] × 100%.

Turning to `CC(C)C[C@H](NC(=O)[C@@H](N)CC(C)C)C(=O)N[C@@H](CCCNC(=N)N)C(=O)N[C@@H](CCCNC(=N)N)C(=O)N[C@@H](CCCCN)C(=O)N[C@@H](Cc1ccccc1)C(=O)N[C@@H](Cc1ccccc1)C(=O)N[C@@H](Cc1ccccc1)C(=O)O` [S2] (H-LLRRKFFF-OH; N-terminus and C-terminus assumed), the “Cytotoxicity at 10 μM (in words)” value (10 μM, CCK-8, n = 5) is listed as “significant cytotoxic effects”. Where the note is “at 10, 20 and 50 μM, CCK-8, n = 5”, this molecule showed a Cell viability of at most 75%.

“KVWQRVKVKML [P3, peptide … derived from Crassostrea gigas mucous proteins, selected by machine learning]”: the “Cytotoxicity within the concentration range detected (in words)” value was “no cytotoxicity”. On to “WKQIKFYVYNRILKKRK [P2, peptide … derived from Crassostrea gigas mucous proteins, selected by machine learning]”, for which the “Cytotoxicity at 50 μM (in words)” value is “significant cell death”. Same read-out and setting: for `CC[C@H](C)[C@H](NC(=O)[C@H](CCCCN)NC(=O)[C@H](Cc1ccc(O)cc1)NC(=O)[C@H](CCCCN)NC(=O)[C@H](CCCCN)NC(=O)[C@H](Cc1ccccc1)NC(=O)[C@H](CCCNC(=N)N)NC(=O)[C@H](CC(N)=O)NC(=O)[C@H](CCSC)NC(=O)[C@@H](NC(=O)[C@H](CC(C)C)NC(=O)[C@H](Cc1ccc(O)cc1)NC(=O)[C@@H](NC(=O)[C@H](C)NC(=O)[C@H](CCCNC(=N)N)NC(=O)[C@H](CCSC)NC(=O)[C@H](CCCCN)NC(=O)[C@H](CCCCN)NC(=O)[C@H](C)NC(=O)[C@H](CCCNC(=N)N)NC(=O)[C@H](CCCNC(=N)N)NC(=O)[C@@H](N)CCCNC(=N)N)[C@@H](C)CC)[C@@H](C)CC)C(=O)O` [P4] (H-RRRAKKMRAIYLIMNRFKKYKI-OH; N-terminus and C-terminus assumed) the value was “significant cell death”. As to “FAKLLLRLPALR [P1, peptide … derived from Crassostrea gigas mucous proteins, selected by machine learning]”, the “Cytotoxicity within the concentration range detected (in words)” value is given as “no cytotoxicity”.

As for LLFRRRLL [S1], the “Cytotoxicity at 50 μM (in words)” value is “significant cell death”.
